Columns and labels:
Wild Type ALK kinase = target: T1, Wild Type ALK kinase (Homo sapiens, UniProt Q9UM73); assay: HTRF KinEASE-TK assay, inhibitory activity on wild type ALK kinase; assay type: biochemical; settings: wild type ALK 1 ng/μl, substrate 1 μM, 30° C. 35 minutes, read-out: Inhibition on ALK kinases (wildtype), IC50
T1 construct: purchased Sino-US Crown Bioscience, Inc. batch number ALK 20110607
Summary of the method: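 ALK kinase at 1 ng/μl and substrate at 1 μM were reacted with compound (1% DMSO) in buffer with 5 mM MgCl2 and 1 mM DTT for 35 min at 30 °C. HTRF detection used the 665/615 ratio, normalised to no-compound wells and to 10.4 μM LDK-378 wells. IC50 came from a concentration-response fit.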

Karpas-299 cell line = assay: CellTiter-Glo cell proliferation inhibition on Karpas-299 cell line; assay type: cell-based; settings: Homo sapiens, 96 h, Karpas-299 cells, 5000 cells/well, 4 days drug treatment
Description: 4. Cell Proliferation Inhibitory Activities of the Compounds of the Present Invention on Karpas-299 Cell Line
? experimental method ? CellTiter-Glo® Luminescent Cell Viability Assay kit from Promega company was used to detect cell proliferation inhibitory activities of the compounds on Karpas-299 cell line.
? instrument ? Envision 2104 plate reader from PerKinElmer company; Vi-Cell XR cell counter from Beckman Counter company; MCO-18AIC CO2 incubator from SANYO company.
? experiment material ? CellTiter-Glo® Luminescent Cell Viability Assay Kit (Promega company, catalog No. G7573); Karpas-299 cell line (DSMZ, catalog No. ACC31); RPMI-1640 medium (HyClone company, catalog No. SH30809.01B); fetal bovine serum (FBS) (Gibco company, catalog No. 10099-141); PBS (HyClone company, catalog No. SH30256.01B); 96 wells cell culture plate (Corning company, catalog No. 3610); DMSO (AMRESCO company, catalog No. 0231); 96 wells plates (for diluting compounds) (CITOTEST company, catalog No. Ref36020096D);
? experimental condition ? Karpas-299 cells in exponential growth phase were collected and viable cells were counted by Vi-Cell XR cell counter. Cell suspension was adjusted to 62500 cells/ml with culture medium (RPMI-1640+10% FBS). 80 μl cell suspension was added into each well of 96 wells cell culture plate so that so that the final cell number of Karpas-299 cells was 5000 cells/well. The cells were cultivated in an incubator with an atmosphere of 37° C., 5% CO2 and 95% humidity for 2 hours and then each well was added with 20 μl compounds in RPMI-1640 medium solution (the final concentration of DMSO was 0.5%). 4 days after drug treatment, each well was added with 50 μl CellTiter-Glo solution which was previously thawed and equilibrated to room temperature, and mixed for 2 minutes with microplate shaker. After placing at room temperature for 10 minutes, luminescence reading value was measured with PerkinElmer Envision 2104 plate reader and the data was analyzed.
? tested samples ? Compounds of the examples.
Luminescence value of DMSO solvent control (Vvehicle control, which is the mean luminescence value from DMSO solvent control group)
Tested luminescence value (Vsample, which is the luminescence value from given concentration of compounds group) Inhibition rate (%)=(1−Vsample/Vvehicle control)×100
? data processing ? IC50 of compounds was calculated by using XLfit program in Excel.

cytochrome P450 1A2 = target: T2, cytochrome P450 1A2 (Homo sapiens, UniProt P05177); assay: Inhibitory activity on cytochrome P450 1A2; assay type: in vitro ADME; settings: no significant inhibition
T2 sequence (P05177 1-516): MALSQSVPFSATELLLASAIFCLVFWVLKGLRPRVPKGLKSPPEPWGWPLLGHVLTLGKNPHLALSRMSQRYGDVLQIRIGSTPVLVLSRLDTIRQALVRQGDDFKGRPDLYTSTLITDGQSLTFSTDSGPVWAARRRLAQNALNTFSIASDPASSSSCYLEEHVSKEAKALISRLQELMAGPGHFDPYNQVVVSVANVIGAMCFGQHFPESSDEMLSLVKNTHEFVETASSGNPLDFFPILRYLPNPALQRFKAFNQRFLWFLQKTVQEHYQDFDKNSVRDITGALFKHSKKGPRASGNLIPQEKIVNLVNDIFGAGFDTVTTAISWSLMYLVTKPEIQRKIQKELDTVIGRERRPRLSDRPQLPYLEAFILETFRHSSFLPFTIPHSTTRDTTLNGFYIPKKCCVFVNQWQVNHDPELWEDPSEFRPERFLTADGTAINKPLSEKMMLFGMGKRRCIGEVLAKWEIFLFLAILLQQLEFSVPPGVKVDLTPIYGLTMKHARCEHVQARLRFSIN

cytochrome P450 2C9 = cytochrome P450 2C9 (Homo sapiens, UniProt P11712); assay: Inhibitory activity on cytochrome P450 2C9; assay type: in vitro ADME; settings: no significant inhibition
cytochrome P450 2C9, sequence (P11712 whole entry): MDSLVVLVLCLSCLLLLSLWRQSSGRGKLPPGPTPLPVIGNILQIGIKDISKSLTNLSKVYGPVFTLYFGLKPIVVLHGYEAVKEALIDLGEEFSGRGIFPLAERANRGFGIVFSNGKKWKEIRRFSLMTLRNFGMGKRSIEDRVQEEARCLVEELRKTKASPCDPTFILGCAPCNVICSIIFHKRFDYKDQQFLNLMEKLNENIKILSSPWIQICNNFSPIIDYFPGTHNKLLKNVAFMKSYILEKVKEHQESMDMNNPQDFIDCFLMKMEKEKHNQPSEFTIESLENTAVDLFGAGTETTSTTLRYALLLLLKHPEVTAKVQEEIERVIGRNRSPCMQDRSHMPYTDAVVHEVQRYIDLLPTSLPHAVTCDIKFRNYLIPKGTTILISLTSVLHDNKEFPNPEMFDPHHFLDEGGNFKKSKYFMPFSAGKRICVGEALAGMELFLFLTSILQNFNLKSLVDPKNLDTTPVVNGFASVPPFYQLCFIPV

cytochrome P450 2C19 = cytochrome P450 2C19 (Homo sapiens, UniProt P33261); assay: Inhibitory activity on cytochrome P450 2C19; assay type: in vitro ADME; settings: no significant inhibition
cytochrome P450 2C19, sequence (P33261 whole entry): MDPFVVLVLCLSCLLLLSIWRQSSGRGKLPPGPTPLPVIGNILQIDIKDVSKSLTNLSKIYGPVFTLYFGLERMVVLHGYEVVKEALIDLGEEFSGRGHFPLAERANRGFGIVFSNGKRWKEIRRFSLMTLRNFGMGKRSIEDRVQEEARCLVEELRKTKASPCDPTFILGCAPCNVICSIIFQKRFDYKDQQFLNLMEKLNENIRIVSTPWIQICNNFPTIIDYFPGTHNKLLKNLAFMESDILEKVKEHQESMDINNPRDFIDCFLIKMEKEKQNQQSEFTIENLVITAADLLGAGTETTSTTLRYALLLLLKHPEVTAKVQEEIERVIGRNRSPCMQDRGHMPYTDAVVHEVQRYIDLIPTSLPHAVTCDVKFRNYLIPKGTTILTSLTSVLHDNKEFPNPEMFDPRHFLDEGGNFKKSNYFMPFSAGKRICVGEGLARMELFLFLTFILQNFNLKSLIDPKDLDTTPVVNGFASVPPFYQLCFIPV

cytochrome P450 2D6 = cytochrome P450 2D6 (Homo sapiens, UniProt P10635); assay: Inhibitory activity on cytochrome P450 2D6; assay type: in vitro ADME; settings: no significant inhibition
cytochrome P450 2D6, sequence (P10635 whole entry): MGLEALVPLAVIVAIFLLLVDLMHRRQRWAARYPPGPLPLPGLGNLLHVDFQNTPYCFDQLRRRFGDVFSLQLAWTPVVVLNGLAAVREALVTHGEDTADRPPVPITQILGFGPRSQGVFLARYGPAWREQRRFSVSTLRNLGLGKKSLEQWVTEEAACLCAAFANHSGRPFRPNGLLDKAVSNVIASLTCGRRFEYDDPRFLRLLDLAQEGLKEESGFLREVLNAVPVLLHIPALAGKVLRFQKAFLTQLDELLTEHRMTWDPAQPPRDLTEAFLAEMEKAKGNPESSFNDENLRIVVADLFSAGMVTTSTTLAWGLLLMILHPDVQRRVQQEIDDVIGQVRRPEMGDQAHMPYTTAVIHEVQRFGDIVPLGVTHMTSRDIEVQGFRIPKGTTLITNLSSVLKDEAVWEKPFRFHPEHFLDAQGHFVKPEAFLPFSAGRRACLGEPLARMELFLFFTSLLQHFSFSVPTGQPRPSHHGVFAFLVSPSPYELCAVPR

cytochrome P450 3A4 = cytochrome P450 3A4 (Homo sapiens, UniProt P08684); assay: Inhibitory activity on cytochrome P450 3A4; assay type: in vitro ADME; settings: no significant inhibition
cytochrome P450 3A4, sequence (P08684 whole entry): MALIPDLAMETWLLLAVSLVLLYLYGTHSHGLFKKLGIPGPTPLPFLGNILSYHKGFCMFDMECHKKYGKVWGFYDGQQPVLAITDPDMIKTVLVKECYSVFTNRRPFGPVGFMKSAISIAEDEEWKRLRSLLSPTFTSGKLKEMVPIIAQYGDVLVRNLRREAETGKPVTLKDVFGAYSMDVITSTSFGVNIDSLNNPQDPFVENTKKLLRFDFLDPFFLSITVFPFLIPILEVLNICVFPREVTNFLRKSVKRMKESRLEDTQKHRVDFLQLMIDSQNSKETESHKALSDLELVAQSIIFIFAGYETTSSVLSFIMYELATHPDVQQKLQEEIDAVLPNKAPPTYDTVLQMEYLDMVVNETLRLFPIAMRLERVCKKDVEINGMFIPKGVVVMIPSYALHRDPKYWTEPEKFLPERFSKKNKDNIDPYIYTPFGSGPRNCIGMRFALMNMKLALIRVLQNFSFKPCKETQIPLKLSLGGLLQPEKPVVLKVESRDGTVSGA

T1 sequence (Q9UM73 19-1620): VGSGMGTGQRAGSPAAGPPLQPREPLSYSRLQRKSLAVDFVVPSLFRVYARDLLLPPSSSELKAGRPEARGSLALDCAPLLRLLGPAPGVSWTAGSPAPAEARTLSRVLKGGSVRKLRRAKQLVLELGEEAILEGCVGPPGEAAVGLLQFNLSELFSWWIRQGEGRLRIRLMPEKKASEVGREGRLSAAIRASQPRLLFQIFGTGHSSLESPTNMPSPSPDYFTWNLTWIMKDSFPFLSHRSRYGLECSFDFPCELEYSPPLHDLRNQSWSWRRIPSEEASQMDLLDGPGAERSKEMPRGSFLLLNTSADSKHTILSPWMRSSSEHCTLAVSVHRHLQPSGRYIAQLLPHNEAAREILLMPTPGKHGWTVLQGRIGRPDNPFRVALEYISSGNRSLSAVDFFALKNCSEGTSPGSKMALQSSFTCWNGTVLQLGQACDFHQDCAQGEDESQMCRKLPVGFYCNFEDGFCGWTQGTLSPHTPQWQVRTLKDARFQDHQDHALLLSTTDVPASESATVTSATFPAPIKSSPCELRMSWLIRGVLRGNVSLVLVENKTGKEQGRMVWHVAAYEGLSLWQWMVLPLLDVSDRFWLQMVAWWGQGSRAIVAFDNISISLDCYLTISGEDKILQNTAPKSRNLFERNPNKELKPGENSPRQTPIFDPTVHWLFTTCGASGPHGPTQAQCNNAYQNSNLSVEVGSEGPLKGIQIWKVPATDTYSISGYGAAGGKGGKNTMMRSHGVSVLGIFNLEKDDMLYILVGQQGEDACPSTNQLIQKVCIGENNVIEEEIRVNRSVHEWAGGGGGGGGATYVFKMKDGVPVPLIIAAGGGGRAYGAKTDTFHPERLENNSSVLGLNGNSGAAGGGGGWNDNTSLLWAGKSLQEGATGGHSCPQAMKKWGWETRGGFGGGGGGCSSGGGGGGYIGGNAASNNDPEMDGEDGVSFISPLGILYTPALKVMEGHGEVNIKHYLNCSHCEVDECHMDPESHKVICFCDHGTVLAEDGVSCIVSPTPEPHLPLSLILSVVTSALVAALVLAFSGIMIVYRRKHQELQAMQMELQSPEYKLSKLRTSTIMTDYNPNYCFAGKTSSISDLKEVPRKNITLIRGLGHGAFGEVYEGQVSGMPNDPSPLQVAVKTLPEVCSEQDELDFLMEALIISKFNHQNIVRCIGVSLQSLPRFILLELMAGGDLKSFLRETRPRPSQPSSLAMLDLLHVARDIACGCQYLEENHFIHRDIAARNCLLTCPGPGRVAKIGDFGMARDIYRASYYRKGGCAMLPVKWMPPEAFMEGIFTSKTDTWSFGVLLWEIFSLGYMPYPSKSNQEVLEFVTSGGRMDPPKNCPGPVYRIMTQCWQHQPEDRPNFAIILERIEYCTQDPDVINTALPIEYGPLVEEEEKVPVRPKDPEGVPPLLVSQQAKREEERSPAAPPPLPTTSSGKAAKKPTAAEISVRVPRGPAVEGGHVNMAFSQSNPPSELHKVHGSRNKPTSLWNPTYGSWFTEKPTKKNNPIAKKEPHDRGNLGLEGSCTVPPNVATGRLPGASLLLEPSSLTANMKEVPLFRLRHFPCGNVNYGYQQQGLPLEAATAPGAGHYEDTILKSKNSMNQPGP

SMILES	IC50 (Wild Type ALK kinase)	IC50 (Karpas-299 cell line)	IC50 (cytochrome P450 1A2)	IC50 (cytochrome P450 2C9)	IC50 (cytochrome P450 2C19)	IC50 (cytochrome P450 2D6)	IC50 (cytochrome P450 3A4)
CC(C)S(=O)(=O)c1nn(C)cc1Nc1nc(Nc2ccc(C3CCN(C)CC3)cc2OC2CC2)ncc1Cl [Final product 40]	3 nM	7 nM	> 10000 nM	> 10000 nM	> 10000 nM	> 10000 nM	> 10000 nM
CC(C)CS(=O)(=O)c1nn(C)cc1Nc1nc(Nc2ccc(C3CCN(C)CC3)cc2OC2CC2)ncc1Cl [Final product 43]	5 nM	26 nM	> 10000 nM	> 10000 nM	> 10000 nM	> 10000 nM	> 10000 nM
CC(C)S(=O)(=O)c1nn(C2CC2)cc1Nc1nc(Nc2cc(F)c(C3CCN(C)CC3)cc2OC2CC2)ncc1Cl [Final product 46]	2 nM	–	> 10000 nM	> 10000 nM	> 10000 nM	> 10000 nM	> 10000 nM
Cc1cc(Nc2ncc(Cl)c(Nc3cn(C)nc3S(=O)(=O)C(C)C)n2)c(OC2CCC2)cc1C1CCN(CCO)CC1 [Final product 138]	4 nM	6 nM	–	–	–	–	–
Cc1cc(Nc2ncc(Cl)c(Nc3cn(C)nc3S(=O)(=O)C(C)C)n2)c(OC(C)C)cc1C1CCN(C(C)(C)CO)CC1 [Final product 152]	4 nM	7 nM	–	–	–	–	–
Cc1cc(Nc2ncc(Cl)c(Nc3cn(C)nc3S(=O)(=O)C(C)C)n2)c(OC2CC2)cc1C1CCN(C=O)CC1 [Final product 159, 4-(4-(5-chloro-4-(3-(isopropylsulfonyl)-1-methyl-1H-pyrazol-4-amino)pyrimidin-2-amino)-5-cyclopropoxy-2-methylphenyl)piperidin-1-formaldehyde]	9 nM	11 nM	–	–	–	–	–
Cc1cc(Nc2ncc(Cl)c(Nc3cn(C)nc3S(=O)(=O)C(C)C)n2)c(OC(C)C)cc1C1CN(S(C)(=O)=O)C1 [Final product 168]	14 nM	68 nM	–	–	–	–	–
Cc1cc(Nc2ncc(Cl)c(Nc3cn(C)nc3S(=O)(=O)C(C)C)n2)c(OC2CC2)cc1C1CN(S(C)(=O)=O)C1 [Final product 170]	40 nM	86 nM	–	–	–	–	–
Cc1cc(Nc2ncc(Cl)c(Nc3cn(C)nc3S(=O)(=O)CC(C)C)n2)c(OC2CC2)cc1[C@H]1CC[C@H](NC2CC2)CC1 [Final product 180]	35 nM	26 nM	–	–	–	–	–
Cc1cc(Nc2ncc(Cl)c(Nc3cn(C)nc3S(=O)(=O)CC(C)C)n2)c(OC2CC2)cc1[C@H]1CC[C@H](NC(C)C)CC1 [Final product 182]	14 nM	15 nM	–	–	–	–	–
Cc1cc(Nc2ncc(Cl)c(Nc3cn(C)nc3S(=O)(=O)C(C)C)n2)c(OC2CC2)cc1[C@H]1CC[C@@H](N(C)C)CC1 [Final product 189]	4 nM	6 nM	–	–	–	–	–
Cc1cc(Nc2ncc(Cl)c(Nc3cn(C)nc3S(=O)(=O)C(C)C)n2)c(OC2CC2)cc1[C@H]1CC[C@H](NC2CC2)CC1 [Final product 196]	9 nM	9 nM	–	–	–	–	–
Cc1cc(Nc2ncc(Cl)c(Nc3cn(C)nc3S(=O)(=O)C(C)C)n2)c(OC2CC2)cc1[C@H]1CC[C@H](NC(C)C)CC1 [Final product 198]	5 nM	5 nM	–	–	–	–	–

The remaining compounds from weak to strong by IC50 (Wild Type ALK kinase), led by results:

IC50 (Wild Type ALK kinase)	IC50 (Karpas-299 cell line)	IC50 (cytochrome P450 1A2)	IC50 (cytochrome P450 2C9)	IC50 (cytochrome P450 2C19)	IC50 (cytochrome P450 2D6)	IC50 (cytochrome P450 3A4)	SMILES
86 nM	69 nM	–	–	–	–	–	Cc1cc(Nc2ncc(Cl)c(Nc3cn(C)nc3S(=O)(=O)CC(C)C)n2)c(OC2CC2)cc1C1CN(S(C)(=O)=O)C1 [Final product 171]
56 nM	15 nM	–	–	–	–	–	Cc1cc(Nc2ncc(Cl)c(Nc3cn(C)nc3S(=O)(=O)C(C)C)n2)c(OC2CC2)cc1C1CCN(C(=O)C(C)(C)C)CC1 [Final product 164, 1-pivaloyl-4-(4-(5-chloro-4-(3-(isopropylsulfonyl)-1-methyl-1H-pyrazol-4-amino)pyrimidin-2-amine)-5-cyclopropoxy-2-methylphenyl)piperidine]
37 nM	19 nM	–	–	–	–	–	CC(C)S(=O)(=O)c1nn(C2CC2)cc1Nc1nc(Nc2ccc(C3CCN(S(C)(=O)=O)CC3)cc2OC2CC2)ncc1Cl [Final product 173]
19 nM	24 nM	–	–	–	–	–	Cc1cc(Nc2ncc(Cl)c(Nc3cn(C)nc3S(=O)(=O)C(C)C)n2)c(OC2CC2)cc1C1CCN(C(=O)C2CC2)CC1 [Final product 162, 1-cyclopropylformyl-4-(4-(5-chloro-4-(3-(isopropylsulfonyl)-1-methyl-1H-pyrazol-4-amino)pyrimidin-2-amine)-5-cyclopropoxy-2-methylphenyl)piperidine]
18 nM	18 nM	–	–	–	–	–	CCN(CC)[C@H]1CC[C@H](c2cc(OC3CC3)c(Nc3ncc(Cl)c(Nc4cn(C)nc4S(=O)(=O)CC(C)C)n3)cc2C)CC1 [Final product 178]
8 nM	17 nM	–	–	–	–	–	CC(C)S(=O)(=O)c1nn(C)cc1Nc1nc(Nc2ccc(C3CCN(S(C)(=O)=O)C3)cc2OC2CC2)ncc1Cl (stereo not shown) [Final product 172]
7 nM	13 nM	–	–	–	–	–	Cc1cc(Nc2ncc(Cl)c(Nc3cn(C)nc3S(=O)(=O)C(C)C)n2)c(OC2CC2)cc1C1CCN(C2CC2)CC1 [Final product 157]
6 nM	35 nM	–	–	–	–	–	Cc1cc(Nc2ncc(Cl)c(Nc3cn(C)nc3S(=O)(=O)C(C)C)n2)c(OC2CC2)cc1C1=C(Cl)CN(C)CC1 [Final product 208, 5-chloro-N^2-[4-(5-chloro-1-methyl-1,2,3,6-tetrahydro-pyridin-4-yl)-2-cyclopropoxy-5-methyl-phenyl]-N^4-[1-methyl-3-(isopropylsulfonyl)-1H-pyrazol-4-yl]-pyrimidin-2,4-diamine]
5 nM	10 nM	–	–	–	–	–	Cc1cc(Nc2ncc(Cl)c(Nc3cn(C)nc3S(=O)(=O)C(C)C)n2)c(OC(C)C)cc1[C@H]1CC[C@H](NC(C)C)CC1 [Final product 188]
4 nM	12 nM	–	–	–	–	–	Cc1cc(Nc2ncc(Cl)c(Nc3cn(C)nc3S(=O)(=O)CC(C)C)n2)c(OC2CC2)cc1C1CCN(CCO)CC1 [Final product 137]
4 nM	20 nM	–	–	–	–	–	CCNC(=O)N1CCC(c2cc(OC3CC3)c(Nc3ncc(Cl)c(Nc4cn(C)nc4S(=O)(=O)C(C)C)n3)cc2C)CC1 [Final product 174, 4-(4-(5-chloro-4-(3-(isopropylsulfonyl)-1-methyl-1H-pyrazol-4-amine)pyrimidin-2-amine)-5-cyclopropoxy-2-methyl-phenyl)-N-ethyl-piperidin-1-carboxamide]
2 nM	3 nM	–	–	–	–	–	Cc1cc(Nc2ncc(Cl)c(Nc3cn(C)nc3S(=O)(=O)C(C)C)n2)c(OC2CC2)cc1C1CCN(C(=O)CN(C)C)CC1 [Final product 165, 1-(2-dimethylamino)acetyl-4-(4-(5-chloro-4-(3-(isopropylsulfonyl)-1-methyl-1H-pyrazol-4-amino)pyrimidin-2-amino)-5-cyclopropoxy-2-methylphenyl)piperidine]

— patent US10023593B2, “ALK kinase inhibitor, and preparation method and uses thereof” (BEIJING PEARL BIOTECHNOLOGY LIMITED LIABILITY COMPANY, priority 2014, dated 2018)
